Assay results: patent US6638762B1, “Tissue-vectors specific replication and gene expression” (priority 1994, dated 2003)

Key:
Add1327 = assay: GCV inhibition of vector replication in vitro, viral titer by TCID50 on 293 cells; assay type: cell-based; conditions: A549 cells transduced with Add1327; 10 μM GCV for 5 days; repeated three times
Protocol: (§1) FIG. 6. GCV Inhibition of Av5E1aTk01i Replication In Vitro. A549 cells were transduced with either Add1327 or Add1327Tk01i. Cells were then treated with 10 uM GCV for 5 days. Following the 5 day incubation, cells were harvested, washed in HBSS, and then freeze/thawed to prepare a crude viral lysate. Titers were then performed by standard TCID50 assays on 293 cells to determine viral titer. The experiment was repeated three times.
(§2) HSV-TK was placed into the E3 region of Add1327 to form Av5E1aTK01i. A549 cells were transduced with either Add1327 or Av5E1aTK01i. Cells were then treated with 10 μM GCV for 5 days. Following the 5 day incubation cells were harvested, washed in HBSS, and then freeze/thawed to prepare a crude viral lysate. Titers were then performed by standard TCID^50 assays on 293 cells to determine viral titer. The experiment was repeated three times.

Av5E1aTK01i [1] = assay: as above; assay type: cell-based; conditions: A549 cells transduced with Av5E1aTK01i; 10 μM GCV for 5 days; repeated three times
Protocol: as §1, §2

Av5E1aTK01i [2] = assay: GCV inhibition of Av5E1aTk01i replication in vivo, immunohistochemistry of subcutaneous A549 tumors; design: species or system nude mice; conditions: A549 tumors injected with 1×10^9 pfu Av5E1aTK01i; IP GCV 75 mg/kg once a day for 5 days
Protocol: (§3) FIG. 7. GCV Inhibition of Av5E1aTk01i Replication In Vivo. Subcutaneous tumors were formed by injecting 1×10^7 A549 cells into the subcutaneous space of the right flank of nude mice. After tumors formed 1×10^9 pfu of Add1327Tk01i was injected into several animals containing tumors. After 5 days, half of the animals received 5 days of IP GCV treatment at 75 mg/kg once a day. At the end of this time frame all animals were sacrificed. Immunohistochemistry was performed on all samples for HSV-TK expression and hexon expression, the latter which is only expressed when the vector is replicating.
as §3, with “Subcutaneous” for “FIG. 7. GCV Inhibition of Av5E1aTk01i Replication In Vivo. Subcutaneous”, “tumors formed,” for “tumors formed”, “of Av5E1aTK01i” for “of Add1327Tk01i”, “5 days” for “5 days,”, “half” for “half of”

Nc1nc(O)c2ncn(COC(CO)CO)c2n1 [GCV, ganciclovir]
effect on viral titer of an adenovirus not carrying the HSV-TK gene (Add1327): no effect
drop in titer of a vector carrying the HSV-TK gene (Av5E1aTK01i [1]): greater than 4 order of magnitude
hexon expression (only expressed when the vector is replicating), immunohistochemistry (Av5E1aTK01i [2]): severely diminished
